From US12084471B2, “Amino acid derivative of glucosamine stimulating extracellular matrix synthesis and pharmaceutical composition comprising the same” (CARTILAGO S.R.L., priority 2018, dated 2024)

Key:
[1] = tested on: fibroblasts stimulated with UVB; assay: fibroblasts stimulated with UVB; type: cell-based
Source text: This discovery promptly aroused in the inventors an interest in the ability of this class of products to intervene in the remodeling of the cutaneous ECM, in which the relative alteration of turnover leads to atrophy of the skin, with consequent aging of the skin and in some cases even to onset of skin cancer processes.

[2] = biological target: T1, IKKβ (Homo sapiens, UniProt O14920); assay: kinase activity of IKKβ; type: cell-based
T1 sequence (O14920 1-756): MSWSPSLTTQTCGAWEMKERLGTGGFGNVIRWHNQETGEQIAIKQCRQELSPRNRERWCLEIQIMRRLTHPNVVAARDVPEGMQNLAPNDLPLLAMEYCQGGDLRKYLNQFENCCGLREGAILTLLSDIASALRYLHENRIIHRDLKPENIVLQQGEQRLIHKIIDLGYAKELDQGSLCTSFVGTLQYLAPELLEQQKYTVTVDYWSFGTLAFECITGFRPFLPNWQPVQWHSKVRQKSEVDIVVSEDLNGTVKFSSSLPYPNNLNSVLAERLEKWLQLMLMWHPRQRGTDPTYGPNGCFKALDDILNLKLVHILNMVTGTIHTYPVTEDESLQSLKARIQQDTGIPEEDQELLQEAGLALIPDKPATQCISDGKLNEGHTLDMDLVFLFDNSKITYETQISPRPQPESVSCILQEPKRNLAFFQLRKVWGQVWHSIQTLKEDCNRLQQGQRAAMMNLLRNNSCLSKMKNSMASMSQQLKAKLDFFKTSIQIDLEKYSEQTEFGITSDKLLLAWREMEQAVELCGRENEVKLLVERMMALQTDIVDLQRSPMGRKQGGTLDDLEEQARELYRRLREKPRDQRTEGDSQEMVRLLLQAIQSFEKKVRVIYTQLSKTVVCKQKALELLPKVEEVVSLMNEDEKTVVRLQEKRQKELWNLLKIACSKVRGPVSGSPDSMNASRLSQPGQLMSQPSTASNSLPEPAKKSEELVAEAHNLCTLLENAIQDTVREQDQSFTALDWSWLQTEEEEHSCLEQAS
Method: (§1) To clarify the molecular mechanism, glucosamine-derived N-acetyl-phenylalanine has been studied in vitro, using primary cultured chondrocytes. The chondrocytes were stimulated with IL-1 in order to study the inflammatory pathway, controlled by the Activator Protein (AP)-1. […] The efficacy of interfering with the inflammatory pathway controlled by the transcription factor Nuclear Factor-κB (NF-κB) was then analyzed, which in turn is controlled by the IKK complex consisting of two IKKα and IKKβ kinases.

[3] = biological target: T2, IKKα (Homo sapiens, UniProt O15111); assay: translocation of IKKα kinase in the nucleus, primary cultured chondrocytes; type: cell-based
T2 sequence (O15111 1-745): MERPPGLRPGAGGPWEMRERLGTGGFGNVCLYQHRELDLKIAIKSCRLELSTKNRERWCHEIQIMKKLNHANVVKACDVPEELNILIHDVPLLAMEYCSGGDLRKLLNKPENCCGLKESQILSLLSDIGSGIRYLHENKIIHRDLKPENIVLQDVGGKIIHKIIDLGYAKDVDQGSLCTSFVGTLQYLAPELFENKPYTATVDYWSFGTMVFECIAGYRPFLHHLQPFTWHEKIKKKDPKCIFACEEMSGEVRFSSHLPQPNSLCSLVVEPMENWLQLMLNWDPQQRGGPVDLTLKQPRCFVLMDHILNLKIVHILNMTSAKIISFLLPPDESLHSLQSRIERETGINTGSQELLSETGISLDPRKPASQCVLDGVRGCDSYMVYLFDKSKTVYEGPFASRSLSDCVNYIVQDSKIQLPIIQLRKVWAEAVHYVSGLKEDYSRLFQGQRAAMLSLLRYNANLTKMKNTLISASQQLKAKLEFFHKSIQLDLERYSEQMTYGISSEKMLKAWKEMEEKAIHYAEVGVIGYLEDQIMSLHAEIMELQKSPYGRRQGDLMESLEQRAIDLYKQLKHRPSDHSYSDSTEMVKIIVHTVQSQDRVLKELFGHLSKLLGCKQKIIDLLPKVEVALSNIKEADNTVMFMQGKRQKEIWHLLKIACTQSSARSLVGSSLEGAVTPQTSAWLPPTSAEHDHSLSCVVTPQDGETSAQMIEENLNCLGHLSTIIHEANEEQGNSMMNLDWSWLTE
Method: as §1

[4] = tested on: JNK; assay: JNK phosphorylation in primary cultured chondrocytes stimulated with IL-1; type: cell-based
Method: as §1

[5] = tested on: human primary chondrocytes; assay: human primary chondrocytes cultured in three dimensions as spheroids, ECM synthesis; type: cell-based; settings: human chondrocyte spheroids, compound alone
Method: Finally, in order to understand which intracellular pathways are activated by said N-acetyl-phenylalanine derived from glucosamine to stimulate ECM synthesis, further in vitro studies in human primary chondrocytes were conducted. In order to simulate physiological conditions, the culture of human chondrocytes was carried out in three dimensions, cultivating the cells in the form of spheroids.

[6] = tested on: osteoarthritic knees of mice; assay: in vivo model of OA in mice, intra-articular administration; settings: mice OA knee
[7] = biological target: T2, IKKα; assay: kinase activity of IKKα; type: cell-based
Method: as §1

[8] = tested on: HAS-2; assay: expression of hyaluronic acid synthetase (HAS-2) and production of hyaluronic acid; type: cell-based
[9] = tested on: c-jun; assay: activation of c-jun (AP-1 component) in primary cultured chondrocytes stimulated with IL-1; type: cell-based
Method: as §1

[10] = tested on: p38; assay: p38 phosphorylation in primary cultured chondrocytes stimulated with IL-1; type: cell-based
Method: as §1

[11] = tested on: osteoarthritic knees of rabbits; assay: in vivo model of OA in rabbit, intra-articular administration; settings: rabbit OA knee

CC(=O)N[C@H](Cc1ccccc1)C(=O)NC1C(O)OC(CO)C(O)C1O (stereo partly drawn) [N-acetyl-phenylalanine derivative of glucosamine]
synthesis of type I collagen ([1]; UVB-stimulated fibroblasts, synthesis blocked by UVB treatment): restore the synthesis of type I collagen
inflammatory pathways stimulated by UVB ([1]; compound added to culture medium of UVB-stimulated fibroblasts): able to counteract the inflammatory pathways
kinase activity of IKKβ [2]: not IKKβ
translocation in the nucleus of the IKKα kinase [3]: inhibited the translocation in the nucleus
phosphorylation of JNK [4]: inhibiting the phosphorylation
synthesis of type II collagen [5]: stimulated the synthesis of type II collagen
cartilage structure [6]: structure very similar to the healthy one
synthesis of new ECM [6]: stimulated the synthesis of new ECM
kinase activity of IKKα [7]: selectively inhibiting the kinase activity of IKKα
expression of the enzyme synthetase of hyaluronic acid (HAS-2) [8]: stimulate the expression
production of hyaluronic acid (HA) [8]: stimulate
activation of c-jun [9]: influencing the activation of c-jun
phosphorylation of p38 [10]: inhibiting the phosphorylation
cartilage structure [11]: structure very similar to the healthy one
synthesis of new ECM [11]: stimulated the synthesis of new ECM
